Data reported in US20040127395A1 (priority 2002, published 2004).
Each block holds one compound with its values, some of them ahead of it.

Tests used:
[1] = tested on: mouse bone marrow-derived mast cells; test: Histamine-induced mast cell chemotaxis in vitro (transwell); type: cell-based; settings: for inhibition at 1 µM / inhibition at 10 µM: Mus musculus, Mast cell
Procedure: Mast cells were differentiated from bone marrow derived from BALB/c or C57bl/6j mice. Mice were sacrificed by asphyxiation under 95% CO2 and femurs were removed. Bone marrow was aseptically isolated from the femurs. The cells (5×10^5/mL) were cultured at 37° C. with 5% CO2 in culture medium consisting of RPMI with 10% FCS, 0.1 mM non-essential amino acids, 50 μg/mL penicillin/streptomycin and 20% conditioned WEHI-3 medium. Conditioned WEHI-3 medium was prepared from WEHI-3 cells (ATCC), which were cultured in Iscoves Dulbeccos medium with 10% FCS, 4 mM L-glutamine, 1.5 g/L sodium carbonate, 0.05 μM beta-mercaptoethanol and 50 μg/mL penicillin/streptomycin. The filtered supernatant was used as the conditioned WEHI-3 medium. After 16 h in culture, the bone marrow cells were transferred to a new flask. The medium was refreshed once per week. After four weeks, the cells were tested by flow cytometry for IgE receptor and CD117 (c-kit) expression. Mast cells were incubated with anti-DNP IgE (ICN Pharmaceuticals, Costa Mesa, Calif.) or vehicle for 30 min, followed by FITC labeled anti-IgE (Pharmingen) or FITC labeled CD117 (Pharmingen) for 30 min on ice. The cultured mast cells consisted of a homogeneous population which was >99% IgE receptor positive and >99% CD117 positive. Mast cells of four to eight weeks culture time were used for experiments.
Transwells (Costar, Cambridge, Mass.) of a pore size of […] were coated with 100 μL of 100 ng/mL human fibronectin (Sigma) for 2 h at room temperature. […] Mast cells (2×10^5/well) were added to the top chamber. The plates were incubated for 3 h at 37° C. Transwells were removed and the number of cells in the bottom chamber was counted for 60 sec using a flow cytometer.

[2] = molecular target: human histamine H4 receptor (Homo sapiens, UniProt Q9H3N8); test: biochemical
[3] = tested on: human eosinophils; test: Histamine-induced eosinophil shape change (GAFS); type: cell-based; settings: for effect on histamine-induced eosinophil shape change / Fold Change: antagonist 10 μM; for Fold Change: eosinophil shape change
Procedure: Human granulocytes were isolated from human blood by a Ficoll gradient. The red blood cells were lysed with 5-10× Qiagen lysis buffer at room temperature for 5-7 min. Granulocytes were harvested and washed once with FACS buffer. The cells were resuspended at a density of 2×10^6 cells/mL in reaction buffer. […] Ten minutes later, the cells were transferred to ice and fixed with 250 μL of ice-cold fixative buffer (2% formaldehyde) for 1 min.

[4] = tested on: mast cells in the mouse trachea; test: Histamine-induced accumulation of mast cells in the mouse trachea in vivo; settings: 0.1 M histamine aerosol, 20 min on 2 consecutive days

SMILES: Cc1ccc2[nH]c(C(=O)NC3CC4CCC(C3)N4C)nc2c1 (centres unmarked) [5-Methyl-1H-benzoimidazole-2-carboxylic acid(8-methyl-8-aza-bicyclo[3.2.1]oct-3-yl)-amide]
inhibition at 1 µM [1]: 66%
inhibition at 10 µM [1]: 27%

SMILES: CC1CN(C(=O)c2cc3ccccc3[nH]2)CCN1 (centres unmarked) [(1H-Indol-2-yl)-(3-methyl-piperazin-1-yl)-methanone]
Ki [2]: 100 nM

SMILES: CN1CCN(C(=S)c2cc3ccccc3[nH]2)CC1 [(1H-Indol-2-yl)-(4-methyl-piperazin-1-yl)-methanethione]
Ki [2]: 132 nM

SMILES: CN1CCN(C(=O)c2cc3sc(Cl)cc3[nH]2)CC1 [(2-Chloro-4H-thieno[3,2-b]pyrrol-5-yl)-(4-methyl-piperazin-1-yl)-methanone]
inhibition at 1 µM [1]: 92%

SMILES: CN1CCN(C(=O)c2cc3cc(Cl)sc3[nH]2)CC1 [(2-Chloro-6H-thieno[2,3-b]pyrrol-5-yl)-(4-methyl-piperazin-1-yl)-methanone]
inhibition at 1 µM [1]: 103%
inhibition at 10 µM [1]: 106%

SMILES: O=C(c1cc2cc(Cl)sc2[nH]1)N1CCN2CCCC2C1 (centres unmarked) [(2-Chloro-6H-thieno[2,3-b]pyrrol-5-yl)-(hexahydro-pyrrolo[1,2-a]pyrazin-2-yl)-methanone]
inhibition at 1 µM [1]: 0%
inhibition at 10 µM [1]: 0%

SMILES: CC1CN(C(=O)c2cc3scc(Br)c3[nH]2)CCN1 (centres unmarked) [(3-Bromo-4H-thieno[3,2-b]pyrrol-5-yl)-(3-methyl-piperazin-1-yl)-methanone]
inhibition at 1 µM [1]: 0%
inhibition at 10 µM [1]: 0%

SMILES: CN1CCN(C(=O)c2cc3c(Cl)c(Cl)ccc3[nH]2)CC1 [(4,5-Dichloro-1H-indol-2-yl)-(4-methyl-piperazin-1-yl)-methanone]
Ki [2]: 11 nM

SMILES: CN1CCN(C(=O)c2cc3c(Br)cccc3[nH]2)CC1 [(4-Bromo-1H-indol-2-yl)-(4-methyl-piperazin-1-yl)-methanone]
Ki [2]: 40 nM

SMILES: Cc1csc2cc(C(=O)N3CCN(C)CC3)[nH]c12 [(4-Methyl-piperazin-1-yl)-(3-methyl-4H-thieno[3,2-b]pyrrol-5-yl)-methanone]
inhibition at 1 µM [1]: 60%

SMILES: CN1CCN(C(=O)c2cc3cc([N+](=O)[O-])ccc3[nH]2)CC1 [(4-Methyl-piperazin-1-yl)-(5-nitro-1H-indol-2-yl)-methanone]
Ki [2]: 46 nM

SMILES: CN1CCN(C(=O)c2nc3cc(F)c(F)cc3[nH]2)CC1 [(5,6-Difluoro-1H-benzoimidazol-2-yl)-(4-methyl-piperazin-1-yl)-methanone]
inhibition at 1 µM [1]: 72%
inhibition at 10 µM [1]: 97%

SMILES: CN1CCN(C(=O)c2cc3cc(Cl)cc(Cl)c3[nH]2)CC1 [(5,7-Dichloro-1H-indol-2-yl)-(4-methyl-piperazin-1-yl)-methanone]
Ki [2]: 10 nM

SMILES: CN1CCN(C(=O)c2cc3cc(F)cc(F)c3[nH]2)CC1 [(5,7-Difluoro-1H-indol-2-yl)-(4-methyl-piperazin-1-yl)-methanone]
inhibition at 1 µM [1]: 100%
Ki [2]: 19 nM

SMILES: Cc1cc(C)c2[nH]c(C(=O)N3CCN(C)CC3)cc2c1 [(5,7-Dimethyl-1H-indol-2-yl)-(4-methyl-piperazin-1-yl)-methanone]
Ki [2]: 30 nM

SMILES: CN1CCN(C(=O)c2cc3cc(Br)ccc3o2)CC1 [(5-Bromo-benzofuran-2-yl)-(4-methyl-piperazin-1-yl)-methanone]
Ki [2]: 95 nM

SMILES: O=C(c1nc2cc(Cl)ccc2[nH]1)N1CCNCC1 [(5-Chloro-1H-benzoimidazol-2-yl)-piperazin-1-yl-methanone]
inhibition at 1 µM [1]: 8%
inhibition at 10 µM [1]: 101%

SMILES: CC1CN(C(=O)c2cc3cc(Cl)ccc3[nH]2)CCN1C (centres unmarked) [(5-Chloro-1H-indol-2-yl)-(3,4-dimethyl-piperazin-1-yl)-methanone]
Ki [2]: 27 nM

SMILES: CC1CN(C(=O)c2cc3cc(Cl)ccc3[nH]2)CCN1 (centres unmarked) [(5-Chloro-1H-indol-2-yl)-(3-methyl-piperazin-1-yl)-methanone]
Ki [2]: 41 nM

SMILES: NCCc1c[nH]cn1 [Histamine, reference compound]
migrated mast cells in the lower chamber ([1]; histamine in lower chamber (1.25-20 μM), FIG. 1): dose-dependent increase in migrated mast cells
shape change in eosinophils ([3]; histamine as stimulus): induces a dose-dependent shape change
migration of mast cells in the trachea [4]: induces a migration of mast cells into the sub-epithelial space

SMILES: S=C(NC1CCCCC1)N1CCC(c2cnc[nH]2)CC1 [Thioperamide]
IC50 ([3]; Eosinophil, human eosinophils, read-out: IC50 for inhibition of histamine-induced eosinophil shape change): 1500 nM

SMILES: CN(C)CCOC(c1ccccc1)c1ccccc1 [diphenhydramine]
effect on histamine-induced eosinophil shape change [3]: did not alter

SMILES: CNC(=C[N+](=O)[O-])NCCSCc1ccc(CN(C)C)o1 [ranatidine]
effect on histamine-induced eosinophil shape change [3]: did not alter
Fold Change ([3]; histamine 0 μM): 1.00
Fold Change ([3]; histamine 0.01 μM): 1.04
Fold Change ([3]; histamine 0.1 μM): 1.21
Fold Change ([3]; histamine 1 μM): 1.49
Fold Change ([3]; histamine 10 μM): 1.64

Second part, led by results:

Ki [2]: 34 nM
SMILES: C[C@@H]1CN(C(=O)c2cc3cc(Cl)ccc3[nH]2)CCN1 [(5-Chloro-1H-indol-2-yl)-((R)-3-methyl-piperazin-1-yl)-methanone]

Ki [2]: 36 nM
SMILES: C[C@H]1CN(C(=O)c2cc3cc(Cl)ccc3[nH]2)CCN1 [(5-Chloro-1H-indol-2-yl)-((S)-3-methyl-piperazin-1-yl)-methanone]

Ki [2]: 25 nM
SMILES: O=C(c1cc2cc(Cl)ccc2[nH]1)N1CCN(CCO)CC1 [(5-Chloro-1H-indol-2-yl)-[4-(2-hydroxy-ethyl)-piperazin-1-yl]-methanone]

Ki [2]: 10 nM
SMILES: O=C(c1cc2cc(Cl)ccc2[nH]1)N1CCNCC1 [(5-Chloro-1H-indol-2-yl)-piperazin-1-yl-methanone]
inhibition at 1 µM [1]: 99%

Ki [2]: 1 nM
SMILES: Cc1cc(Cl)cc2cc(C(=O)N3CCN(C)CC3)[nH]c12 [(5-Chloro-7-methyl-1H-indol-2-yl)-(4-methyl-piperazin-1-yl)-methanone]
inhibition at 1 µM [1]: 100%
inhibition at 10 µM [1]: 97%

Ki [2]: 18 nM
SMILES: CN1CCN(C(=O)c2cc3cc(F)ccc3[nH]2)CC1 [(5-Fluoro-1H-indol-2-yl)-(4-methyl-piperazin-1-yl)-methanone]

Ki [2]: 19 nM
SMILES: CN1CCN(C(=O)c2cc3cc(O)ccc3[nH]2)CC1 [(5-Hydroxy-1H-indol-2-yl)-(4-methyl-piperazin-1-yl)-methanone]

Ki [2]: 11 nM
SMILES: Cc1ccc2[nH]c(C(=O)N3CCN(C)CC3)cc2c1 [(5-Methyl-1H-indol-2-yl)-(4-methyl-piperazin-1-yl)-methanone]

Ki [2]: 188 nM
SMILES: CN1CCN(C(=O)c2cc3ccc(Br)cc3[nH]2)CC1 [(6-Bromo-1H-indol-2-yl)-(4-methyl-piperazin-1-yl)-methanone]

Ki [2]: 124 nM
SMILES: CN1CCN(C(=O)c2cc3ccc(Cl)cc3[nH]2)CC1 [(6-Chloro-1H-indol-2-yl)-(4-methyl-piperazin-1-yl)-methanone]

Ki [2]: 32.5 nM
SMILES: CN1CCN(C(=O)c2cc3ccc(O)cc3[nH]2)CC1 [(6-Hydroxy-1H-indol-2-yl)-(4-methyl-piperazin-1-yl)-methanone]

Ki [2]: 7 nM
SMILES: CN1CCN(C(=O)c2cc3cccc(N)c3[nH]2)CC1 [(7-Amino-1H-indol-2-yl)-(4-methyl-piperazin-1-yl)-methanone]
inhibition at 1 µM [1]: 99%

Ki [2]: 43 nM
SMILES: Nc1cccc2cc(C(=O)N3CCNCC3)[nH]c12 [(7-Amino-1H-indol-2-yl)-piperazin-1-yl-methanone]

Ki [2]: 55 nM
SMILES: CN1CCN(C(=O)c2cc3cccc(Br)c3[nH]2)CC1 [(7-Bromo-1H-indol-2-yl)-(4-methyl-piperazin-1-yl)-methanone]

Ki [2]: 23 nM
SMILES: CN1CCN(C(=O)c2cc3cccc(Cl)c3[nH]2)CC1 [(7-Chloro-1H-indol-2-yl)-(4-methyl-piperazin-1-yl)-methanone]

Ki [2]: 47 nM
SMILES: CN1CCN(C(=O)c2cc3cccc(O)c3[nH]2)CC1 [(7-Hydroxy-1H-indol-2-yl)-(4-methyl-piperazin-1-yl)-methanone]

Ki [2]: 6.6 nM
SMILES: Cc1cccc2cc(C(=O)N3CCN(C)CC3)[nH]c12 [(7-Methyl-1H-indol-2-yl)-(4-methyl-piperazin-1-yl)-methanone]

Ki [2]: 145 nM
SMILES: COc1cccc(-c2ccc3[nH]c(C(=O)N4CCN(C)CC4)cc3c2)c1 [[5-(3-Methoxy-phenyl)-1H-indol-2-yl]-(4-methyl-piperazin-1-yl)-methanone]
